Here are results for 14 compounds from US6294674A, “Dibenzofuran sulfonamide matrix metalloproteinase inhibitors” (priority 1999, dated 2001).

In one experiment the target is T1, MMP07 (Homo sapiens, UniProt P09237).
T1 construct: made in house; host or cells: Escherichia coli
T1 sequence (P09237 95-267): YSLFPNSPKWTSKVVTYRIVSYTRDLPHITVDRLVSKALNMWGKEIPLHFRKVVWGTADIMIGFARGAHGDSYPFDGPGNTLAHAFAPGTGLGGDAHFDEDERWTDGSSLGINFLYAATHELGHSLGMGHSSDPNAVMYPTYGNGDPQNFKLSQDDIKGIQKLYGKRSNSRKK
The experiment can be described thus: Thiopeptolide assay, MMP07. The settings on record: Tables 2, 3, 5, 7; read-out: IC50 MMP-7. The class given is biochemical. The protocol:
(§1) MMP01, MMP07, MMP09, and MMP13 activity was assayed in a method similar to MMP02 and MMP03 (SCD and GCD). MMP01 and MMP09 can be obtained from Washington University School of Medicine, St. Louis, Mo. MMP07 can be obtained in accordance with the known procedure set forth by Ye QZ, Johnson L. L., and Baragi V., "Gene Syntheses and Expression in E. coli for PUMP, a Human Matrix Metalloproteinase" Biochem. and Biophys. […] MMP 13 can be obtained in accordance with the known procedure set forth by Freije J. M. P., et al., "Molecular Cloning and Expression of Collegenase-3, a Novel Human Matrix Metalloproteinase Produced by Breast Carcinomas" J. Bio.
(§2) Hydrolysis of the thiopeptolide substrate Ac-Pro-Leu-Gly-thioester-Leu-Leu-Gly-OEt (Bachem) is used as the primary screen to determine IC50 values for MMP inhibitors. A 100 μL reaction contains 1 mM 5,5'-dithiobis(2-nitrobenzoic acid) (DTNB), 100 μM substrate, 0.1% Brij, enzyme, and inhibitor in the appropriate reaction buffer. Activated full-length enzymes are assayed at 5 nM, Stromelysin Catalytic Domain (SCD) at 10 nM, and Gelatinase A Catalytic Domain (GaCD) at 1 nM. Inhibitors are screened from 100 μM to 1 nM. Full-length enzymes are assayed in 50 mM HEPES, 10 mM CaCl2, pH 7.0; SCD in 50 mM MES, 10 mM CaCl2, pH 6.0; and GaCD in 50 mM MOPS, 10 mM CaCl2, 10 μM ZnCl2, pH 7.0.

The target in experiment [1] is gelatinase A catalytic domain (MMP02). The experiment can be described thus: Thiopeptolide assay, gelatinase A catalytic domain (GCD, MMP02). It is filed as biochemical. The settings on record: Tables 2, 3, 5, 7; read-out: IC50 MMP-2CD. The protocol:
as §2

In the next experiment the test system is MMP-13CD. Description: Thiopeptolide assay, MMP-13CD. It is filed as biochemical, human. The note with it: Tables 2, 3, 5, 7. The protocol: IC50 values were determined using a thiopeptolide substrate, Ac-Pro-Leu-Gly-thioester-Leu-Leu-Gly-OEt (Ye Q.-Z., Johnson L. L., Hupe D. J., and Baragi V., "Purification and Characterization of the Human Stromelysin Catalytic Domain Expressed in Escherichia coli," Biochemistry, 1992;31:11231-11235). MMP01, MMP07, MMP09, and MMP13 activity was assayed in a method similar to MMP02 and MMP03 (SCD and GCD). MMP01 and MMP09 can be obtained from Washington University School of Medicine, St. Louis, Mo. MMP07 can be obtained in accordance with the known procedure set forth by Ye QZ, Johnson L. L., and Baragi V., "Gene Syntheses and Expression in E. coli for PUMP, a Human Matrix Metalloproteinase" Biochem. and Biophys. Res. Comm., 1992; 186:143-149. MMP 13 can be obtained in accordance with the known procedure set forth by Freije J. M. P., et al., "Molecular Cloning and Expression of Collegenase-3, a Novel Human Matrix Metalloproteinase Produced by Breast Carcinomas" J. Bio. Chem., 1994;269:16766-6773.
as §2, with “7.0. The change in absorbance at 405 riM is monitored on a ThermoMax microplate reader at room temperature continuously for 20 minutes.” for “7.0.”

A further experiment has as its target T2, MMP01 (Homo sapiens, UniProt P03956).
T2 construct: purchased Washington University School of Medicine, St. Louis, Mo
T2 sequence (P03956 100-469): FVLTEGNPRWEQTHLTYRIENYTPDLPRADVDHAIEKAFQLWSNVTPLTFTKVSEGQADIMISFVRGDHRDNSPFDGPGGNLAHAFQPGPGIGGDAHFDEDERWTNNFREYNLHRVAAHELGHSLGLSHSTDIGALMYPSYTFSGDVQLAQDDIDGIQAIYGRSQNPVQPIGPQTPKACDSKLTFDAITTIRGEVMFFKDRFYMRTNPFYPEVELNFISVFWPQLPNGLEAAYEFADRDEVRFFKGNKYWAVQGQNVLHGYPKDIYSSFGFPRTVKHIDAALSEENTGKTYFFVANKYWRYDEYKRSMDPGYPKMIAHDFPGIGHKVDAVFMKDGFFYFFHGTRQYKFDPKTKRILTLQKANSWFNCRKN
The experiment can be described thus: Thiopeptolide assay, MMP01. The note with it: Tables 2, 3, 5, 7; read-out: IC50 MMP1. It is filed as biochemical. The procedure:
as §1, §2

The target of experiment [2] is T3, stromelysin-1 catalytic domain (MMP03) (Homo sapiens, UniProt P08254).
T3 construct: SCD (stromelysin-1 catalytic domain); made in house; host or cells: Escherichia coli
T3 sequence (P08254 100-272 limits assumed): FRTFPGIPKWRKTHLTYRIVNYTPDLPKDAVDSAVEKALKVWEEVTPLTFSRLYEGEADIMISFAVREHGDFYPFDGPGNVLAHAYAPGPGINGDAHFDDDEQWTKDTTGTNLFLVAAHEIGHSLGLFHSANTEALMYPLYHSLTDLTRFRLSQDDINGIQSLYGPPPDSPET
Description: Thiopeptolide assay, stromelysin-1 catalytic domain (SCD, MMP03). The class given is biochemical. The note with it: Tables 2, 3, 5, 7; read-out: IC50 MMP 3CD. The protocol: as §2

For orientation: IC50 means the concentration that gives 50% inhibition. On to `Cn1cccc1CCNC(=O)CCC(NS(=O)(=O)c1ccc2oc3ccccc3c2c1)C(=O)O` (stereo not shown) [Example F14, 2-(Dibenzofuran-2-sulfonylamino)-4-[2-(1-methyl-1H-pyrrol-2-yl)-ethylcarbamoyl]-butyric acid], for which the IC50 is 57.6 µM at MMP07; 400 nM in experiment [1]; 2.4 µM in the experiment with MMP-13CD; > 100 µM on MMP01; 1.4 µM in experiment [2].
For the compound `O=C(Cc1ccccc1C(F)(F)F)NCCCCC(NS(=O)(=O)c1ccc2oc3ccccc3c2c1)C(=O)O` (stereo not shown) [Example A4, 2-(Dibenzofuran-2-sulfonylamino)-6-[2-(2-trifluoromethyl-phenyl)-acetylamino]-hexanoic acid], the 50% inhibitory concentration (IC50) at MMP07 is > 100 µM; in experiment [1], 2700 nM; with MMP-13CD, 3.7 µM; at MMP01 it was > 100 µM; in experiment [2], 4.6 µM.
With `O=C(O)C(CCCCNC(=S)NC(c1ccccc1)c1ccccc1)NS(=O)(=O)c1ccc2oc3ccccc3c2c1` (stereo not shown) [Example B4, 6-(3-Benzhydryl-thioureido)-2-(dibenzofiuran-2-sulfonylamino)-hexanoic acid], the IC50 at MMP07 is > 100 µM; in experiment [1] it was 9100 nM; in the experiment with MMP-13CD, 20.5 µM; on MMP01 it was > 100 µM; in experiment [2] it was 8.1 µM.
Take `O=C(COc1ccccc1)NCCCCC(NS(=O)(=O)c1ccc2oc3ccccc3c2c1)C(=O)O` (stereo not shown) [Example A8, 2-(Dibenzofuran-2-sulfonylamino)-6-(2-phenoxy-acetylamino)-hexanoic acid]: the IC50 was > 100 µM on MMP07; 1600 nM in experiment [1]; 4.8 µM in the experiment on MMP-13CD; > 100 µM at MMP01; 2.5 µM in experiment [2].
Take `O=C(CCC(NS(=O)(=O)c1ccc2oc3ccccc3c2c1)C(=O)O)NC1CC1` (stereo not shown) [Example F6, 4-Cyclopropylcarbamoyl-2-(dibenzofuran-2-sulfonylamino)-butyric acid]: the half-maximal inhibitory concentration (IC50) was determined as 14.8 µM at MMP07; 200 nM in experiment [1]; 0.3 µM with MMP-13CD; 68.7 µM at MMP01; 0.2 µM in experiment [2].
For `CC(C)CC(C)NC(=O)CCC(NS(=O)(=O)c1ccc2oc3ccccc3c2c1)C(=O)O` (stereo not shown) [Example F8, 2-(Dibenzofuran-2-sulfonylamino)-4-(1,3-dimethyl-butylcarbamoyl)-butyric acid] the same measures were 7 µM, 100 nM, 0.2 µM, 61.3 µM and 0.4 µM.
In the same order, the values of `O=C(CCC(NS(=O)(=O)c1ccc2oc3ccccc3c2c1)C(=O)O)Nc1ccc(Cl)cc1` (stereo not shown) [Example F12, 4-(4-Chloro-phenylcarbamoyl)-2-(dibenzofuran-2-sulfonylamino)-butyric acid] are 32.4 µM, 300 nM, 3.7 µM, > 100 µM and 0.7 µM.
Regarding `CN(C)CCNC(=O)CCC(NS(=O)(=O)c1ccc2oc3ccccc3c2c1)C(=O)O` (stereo not shown) [Example F9, 2-(Dibenzofuran-2-sulfonylamino)-4-(2-dimethylamino-ethylcarbamoyl)-butyricacid], the concentration for half-maximal inhibition (IC50) on MMP07 is > 100 µM; in experiment [1] it was 9800 nM; in the experiment with MMP-13CD, 39.3 µM; at MMP01 it was > 100 µM; in experiment [2] it was 22.6 µM.
For `O=C(CCc1ccncc1)NCCCCC(NS(=O)(=O)c1ccc2oc3ccccc3c2c1)C(=O)O` (stereo not shown) [Example A22, 2-(Dibenzofuran-2-sulfonylamino)-6-(3-pyridin4-yl-propionylamino)-hexanoic Acid], the IC50 at MMP07 was > 100 µM; in experiment [1], 3000 nM; in the experiment on MMP-13CD, 10 µM; at MMP01, > 100 µM; in experiment [2] it was 9 µM.
For the compound `O=C(CCC(NS(=O)(=O)c1ccc2oc3ccccc3c2c1)C(=O)O)NCc1cccs1` (stereo not shown) [Example F7, 2-(Dibenzofuran-2-sulfonylamino)-4-[(thiophen-2-ylmethyl)-carbamoyl]-butyric acid], the IC50 on MMP07 is 12.3 µM; in experiment [1], 300 nM; with MMP-13CD, 0.3 µM; at MMP01, 40.9 µM; in experiment [2], 0.4 µM.
Take `CC(O)CNC(=O)CCC(NS(=O)(=O)c1ccc2oc3ccccc3c2c1)C(=O)O` (stereo not shown) [Example F3, 2-(Dibenzofuran-2-sulfonylamino)-4-(2-hydroxy-propylcarbamoyl)-butyric acid]: the IC50 on MMP07 was > 100 µM; in experiment [1] it was 3900 nM; with MMP-13CD it was 24.1 µM; on MMP01 it was > 100 µM; in experiment [2], 8.7 µM.
For `O=C(COc1cccc2ccccc12)NCCCCC(NS(=O)(=O)c1ccc2oc3ccccc3c2c1)C(=O)O` (stereo not shown) [Example A14, 2-(Dibenzofuran-2-sulfonylamino)-6-[2-(naphthalen-1-yloxy)acetylamino]-hexanoic acid], the IC50 is > 100 µM on MMP07; 7800 nM in experiment [1]; 42.6 µM with MMP-13CD; > 100 µM on MMP01; 5.2 µM in experiment [2].
As to `CCC(C)CNC(=O)CCC(NS(=O)(=O)c1ccc2oc3ccccc3c2c1)C(=O)O` (stereo not shown) [Example F2, 2-(Dibenzofuran-2-sulfonylamino)-4-(2-methyl-butylcarbamoyl)-butyric acid], the IC50 at MMP07 is 26.4 µM; in experiment [1], 900 nM; with MMP-13CD, 1.2 µM; on MMP01 it was > 100 µM; in experiment [2] it was 1.8 µM.
For `O=C(O)C(CCCCNC(=S)Nc1cccnc1)NS(=O)(=O)c1ccc2oc3ccccc3c2c1` (stereo not shown) [Example B3, 2-(Dibenzofuran-2-sulfonylamino)-6-(3-pyridin-3-yl-thioureido)-hexanoic acid] the same measures were 93.5 µM, 2100 nM, 13.6 µM, > 100 µM and 6.1 µM.
